# Data from patent US10611771B2, “Pyrazolo [3,4-d] pyrimidine derivative” (WEST CHINA HOSPITAL, SICHUAN UNIVERSITY, priority 2016, dated 2020).
# “And” between values parts separate entries of the source, which are not always exact repeats. Identical values can stand only once.
# Key:
# H1299 cells = assay: MTT detection method, inhibitory effect against H1299 cells; assay type: cell-based
# From the text: (§1) MTT detection method was used, and MTT is a yellow compound and a dye accepting hydrogen ions, and can be used as the respiratory chain in mitochondria of viable cells. Under the action of succinate dehydrogenase and cytochrome C, the tetrazolium ring broke to form blue formanzan crystal, and the formation amount of formanzan crystal was only directly proportional to the viable counts. The formanzan crystal formed by reduction can dissolve in dimethyl sulfoxide (DMSO), and the optical density (OD) value can be determined at 490 nm using ELISA, to reflect the viable counts.
# (§2) • Lung cancer cell lines: A549 and H1299. • Experimental materials: lung cancer cell lines, instruments and tools for cell culture, MTT, the compound mother liquid (10 mmol/L), and the positive control drug Src inhibitor pp1. 1. Specific Method • (3-1) Cell lines A549 and H1299 were recovered, and when the cells were in good conditions, namely cells grew to about 80% after one passage (i.e. the logarithmic growth phase), the cells were planked (96-well plate). • (3-2) Firstly, cells were collected, and the concentration of cell suspension was adjusted with counting chamber. Cells were seeded in 96-well plate at 1000˜10000 cells/well, and the detailed cell numbers in each well were dependent on the growth rate of different cells and the action time of drugs. A549 cells were seeded at 5000 cells, while H1299 cells were also seeded at 5000 cells, 200 μl for each well (100 μl cell suspension+100 μl drug dilution at different concentration gradient). The edge wells (36) were added 200 μl culture media (for prevention of edge effect). • (3-3) After planking and adding drugs, the plate was treated at 24 h, 48 h, and 72 h, and then for coloration, each well was added 200 μl culture media containing 20 μl MTT solution (5 mg/mL). The plate was continually cultured for 1˜4 hours, the incubation was stopped, and the culture supernatant fluid in each well was carefully absorbed. For suspension cells, the culture supernatant fluid in each well need be centrifuged before drawing. 150 μl DMSO was added to each well, and the plate was shaken on a shaking table for 15˜20 min, to allow the crystals to be completely dissolved. • (3-4) Colorimetry: The colorimetry was performed by ELISA, and the optical absorption value of each well was tested at a wavelength of 490 nm or 570 nm, and the result was recorded. • (3-5) Calculation Inhibition ratio=(the control−the drug)/the control×100% • IC50 (50% inhibitory concentration) can be calculated by spass software based on the inhibitory ratio at different concentration. II. Experimental Results • A549 cells were treated at 4 h, 24 h, 48 h, 72 h, and the drug dose was divided into the light concentration group (10 μm, 25 μm, 40 μm) and the high concentration group (50 μm, 80 μm, 100 μm), that were seeded at 6000 cells/well and 5000 cells/well, respectively, to carry out the experiment.
# H1299 cells were seeded at 5000 cells/well, and after treatment for 4 h, 24 h, 48 h, and 72 h, the results were shown in Tables 5-9 and FIGS. 5-8: […]
# A549 cells = assay: MTT detection method, inhibitory effect against A549 cells; assay type: cell-based
# From the text: as §1, §2
structure (smiles),measurement,setting,value
"CC(C)(C)n1nc(-c2ccc(OCCOCCOCCOCCO)cc2)c2c(N)ncnc21 [Compound 5, 2-(2-(2-(2-(4-(4-amino-1-tert-butyl-1H-pyrazolo[3,4-d]pyrimidin-3-)phenoxy)ethoxy)ethoxy)ethoxy)ethanol]",The inhibitory ratio (%) for three parallel assays,"H1299 cells; 4 h, 10 μm",4% and 6%
same,The mean inhibitory ratio (%),"H1299 cells; 4 h, 10 μm",4%
same,The inhibitory ratio (%) for three parallel assays,"H1299 cells; 4 h, 25 μm",6% and 7%
same,The mean inhibitory ratio (%),"H1299 cells; 4 h, 25 μm",7%
same,The inhibitory ratio (%) for three parallel assays,"H1299 cells; 4 h, 40 μm",7% and 8%
same,The mean inhibitory ratio (%),"H1299 cells; 4 h, 40 μm",8%
same,The inhibitory ratio (%) for three parallel assays,"H1299 cells; 4 h, 50 μm",13% and 9%
same,The mean inhibitory ratio (%),"H1299 cells; 4 h, 50 μm",10%
same,The inhibitory ratio (%) for three parallel assays,"H1299 cells; 4 h, 80 μm",12% and 13%
same,The mean inhibitory ratio (%),"H1299 cells; 4 h, 80 μm",12%
same,The inhibitory ratio (%) for three parallel assays,"H1299 cells; 4 h, 100 μm",13% and 15% and 14%
same,The mean inhibitory ratio (%),"H1299 cells; 4 h, 100 μm",14%
same,The inhibitory ratio (%) for three parallel assays,"H1299 cells; 24 h, 10 μm",10% and 8% and 13%
same,The mean inhibitory ratio (%),"H1299 cells; 24 h, 10 μm",11%
same,The inhibitory ratio (%) for three parallel assays,"H1299 cells; 24 h, 25 μm",14% and 13%
same,The mean inhibitory ratio (%),"H1299 cells; 24 h, 25 μm",14%
same,The inhibitory ratio (%) for three parallel assays,"H1299 cells; 24 h, 40 μm",11% and 13% and 14%
same,The mean inhibitory ratio (%),"H1299 cells; 24 h, 40 μm",13%
same,The inhibitory ratio (%) for three parallel assays,"H1299 cells; 24 h, 50 μm",20% and 25% and 26%
same,The mean inhibitory ratio (%),"H1299 cells; 24 h, 50 μm",24%
same,The inhibitory ratio (%) for three parallel assays,"H1299 cells; 24 h, 80 μm",28% and 26% and 24%
same,The mean inhibitory ratio (%),"H1299 cells; 24 h, 80 μm",26%
same,The inhibitory ratio (%) for three parallel assays,"H1299 cells; 24 h, 100 μm",29% and 31% and 26%
same,The mean inhibitory ratio (%),"H1299 cells; 24 h, 100 μm",28%
same,The inhibitory ratio (%) for three parallel assays,"H1299 cells; 48 h, 10 μm",4% and 5% and 6%
same,The mean inhibitory ratio (%),"H1299 cells; 48 h, 10 μm",5%
same,The inhibitory ratio (%) for three parallel assays,"H1299 cells; 48 h, 25 μm",15% and 18% and 14%
same,The mean inhibitory ratio (%),"H1299 cells; 48 h, 25 μm",16%
same,The inhibitory ratio (%) for three parallel assays,"H1299 cells; 48 h, 40 μm",22% and 25%
same,The mean inhibitory ratio (%),"H1299 cells; 48 h, 40 μm",23%
same,The inhibitory ratio (%) for three parallel assays,"H1299 cells; 48 h, 50 μm",24% and 26%
same,The mean inhibitory ratio (%),"H1299 cells; 48 h, 50 μm",25%
same,The inhibitory ratio (%) for three parallel assays,"H1299 cells; 48 h, 80 μm",36% and 38%
same,The mean inhibitory ratio (%),"H1299 cells; 48 h, 80 μm",37%
same,The inhibitory ratio (%) for three parallel assays,"H1299 cells; 48 h, 100 μm",42% and 41%
same,The mean inhibitory ratio (%),"H1299 cells; 48 h, 100 μm",41%
same,The inhibitory ratio (%) for three parallel assays,"H1299 cells; 72 h, 10 μm",8% and 5% and 2%
same,The mean inhibitory ratio (%),"H1299 cells; 72 h, 10 μm",5%
same,The inhibitory ratio (%) for three parallel assays,"H1299 cells; 72 h, 25 μm",7% and 4% and 3%
same,The mean inhibitory ratio (%),"H1299 cells; 72 h, 25 μm",5%
same,The inhibitory ratio (%) for three parallel assays,"H1299 cells; 72 h, 40 μm",18% and 21% and 23%
same,The mean inhibitory ratio (%),"H1299 cells; 72 h, 40 μm",20%
same,The inhibitory ratio (%) for three parallel assays,"H1299 cells; 72 h, 50 μm",26% and 23%
same,The mean inhibitory ratio (%),"H1299 cells; 72 h, 50 μm",24%
same,The inhibitory ratio (%) for three parallel assays,"H1299 cells; 72 h, 80 μm",37% and 36% and 38%
same,The mean inhibitory ratio (%),"H1299 cells; 72 h, 80 μm",37%
same,The inhibitory ratio (%) for three parallel assays,"H1299 cells; 72 h, 100 μm",45% and 41% and 39%
same,The mean inhibitory ratio (%),"H1299 cells; 72 h, 100 μm",42%
same,The inhibitory ratio (%) for three parallel assays,"A549 cells; 4 h, 10 μm",26.88% and 26.25% and 28.75%
same,The mean inhibitory ratio (%),"A549 cells; 4 h, 10 μm",27.29%
same,The mean inhibitory ratio (%),"A549 cells; 4 h, 25 μm",21.77%
same,The inhibitory ratio (%) for three parallel assays,"A549 cells; 4 h, 40 μm",23.44% and 20.94% and 18.13%
same,The mean inhibitory ratio (%),"A549 cells; 4 h, 40 μm",20.83%
same,The inhibitory ratio (%) for three parallel assays,"A549 cells; 4 h, 50 μm",16.57% and 11.14% and 14.57%
same,The mean inhibitory ratio (%),"A549 cells; 4 h, 50 μm",14.10%
same,The inhibitory ratio (%) for three parallel assays,"A549 cells; 4 h, 80 μm",20.86% and 20.29% and 14.57%
same,The mean inhibitory ratio (%),"A549 cells; 4 h, 80 μm",18.57%
same,The inhibitory ratio (%) for three parallel assays,"A549 cells; 4 h, 100 μm",24.00% and 20.86% and 22.57%
same,The mean inhibitory ratio (%),"A549 cells; 4 h, 100 μm",22.48%
same,The inhibitory ratio (%) for three parallel assays,"A549 cells; 24 h, 10 μm",14.35% and 15.65% and 13.26%
same,The mean inhibitory ratio (%),"A549 cells; 24 h, 10 μm",14.42%
same,The inhibitory ratio (%) for three parallel assays,"A549 cells; 24 h, 25 μm",22.39% and 13.70% and 14.78%
same,The mean inhibitory ratio (%),"A549 cells; 24 h, 25 μm",16.96%
same,The inhibitory ratio (%) for three parallel assays,"A549 cells; 24 h, 40 μm",26.30% and 16.52% and 14.13%
same,The mean inhibitory ratio (%),"A549 cells; 24 h, 40 μm",18.99%
same,The inhibitory ratio (%) for three parallel assays,"A549 cells; 24 h, 50 μm",17.08% and 18.33% and 17.92%
same,The mean inhibitory ratio (%),"A549 cells; 24 h, 50 μm",17.78%
same,The inhibitory ratio (%) for three parallel assays,"A549 cells; 24 h, 80 μm",22.50% and 20.83% and 20.21%
same,The mean inhibitory ratio (%),"A549 cells; 24 h, 80 μm",21.18%
same,The inhibitory ratio (%) for three parallel assays,"A549 cells; 24 h, 100 μm",27.92% and 27.50%
same,The mean inhibitory ratio (%),"A549 cells; 24 h, 100 μm",27.78%
same,The mean inhibitory ratio (%),"A549 cells; 48 h, 10 μm",9.64%
same,The inhibitory ratio (%) for three parallel assays,"A549 cells; 48 h, 25 μm",14.84% and 14.22% and 13.91%
same,The mean inhibitory ratio (%),"A549 cells; 48 h, 25 μm",14.32%
same,The inhibitory ratio (%) for three parallel assays,"A549 cells; 48 h, 40 μm",19.22% and 26.72% and 20.63%
same,The mean inhibitory ratio (%),"A549 cells; 48 h, 40 μm",22.19%
same,The inhibitory ratio (%) for three parallel assays,"A549 cells; 48 h, 50 μm",15.33% and 13.33% and 12.83%
same,The mean inhibitory ratio (%),"A549 cells; 48 h, 50 μm",13.83%
same,The inhibitory ratio (%) for three parallel assays,"A549 cells; 48 h, 80 μm",15.33% and 19.67% and 18.00%
same,The mean inhibitory ratio (%),"A549 cells; 48 h, 80 μm",17.67%
same,The inhibitory ratio (%) for three parallel assays,"A549 cells; 48 h, 100 μm",30.50% and 31.33% and 31.67%
same,The mean inhibitory ratio (%),"A549 cells; 48 h, 100 μm",31.17%
same,The inhibitory ratio (%) for three parallel assays,"A549 cells; 72 h, 10 μm",9.82% and 8.11% and 15.05%
same,The mean inhibitory ratio (%),"A549 cells; 72 h, 10 μm",10.99%
same,The inhibitory ratio (%) for three parallel assays,"A549 cells; 72 h, 25 μm",35.41% and 32.43% and 39.37%
same,The mean inhibitory ratio (%),"A549 cells; 72 h, 25 μm",35.74%
same,The inhibitory ratio (%) for three parallel assays,"A549 cells; 72 h, 40 μm",50.18% and 45.68% and 50.45%
same,The mean inhibitory ratio (%),"A549 cells; 72 h, 40 μm",48.77%
same,The inhibitory ratio (%) for three parallel assays,"A549 cells; 72 h, 50 μm",20.27% and 17.70% and 22.30%
same,The mean inhibitory ratio (%),"A549 cells; 72 h, 50 μm",20.09%
same,The inhibitory ratio (%) for three parallel assays,"A549 cells; 72 h, 80 μm",29.59% and 28.51% and 30.14%
same,The mean inhibitory ratio (%),"A549 cells; 72 h, 80 μm",29.41%
same,The inhibitory ratio (%) for three parallel assays,"A549 cells; 72 h, 100 μm",53.11% and 52.70% and 54.05%
same,The mean inhibitory ratio (%),"A549 cells; 72 h, 100 μm",53.29%
